Data set [1] addresses Serotonin 1 (5-HT1) receptor (Rattus norvegicus, UniProt P28564+P30940+P19327+P28565). The data set is described as follows: Antagonist activity at 5-HT1 receptor in Sprague-Dawley rat assessed as inhibition of 5-HT-induced stomach fundus contraction.
Data set [2] in a line: Chloroform to aqueous buffer partition coefficient, log P of the compound at pH 7.4 by shake flask method. The class given is physicochemical.
The nature of data set [3]: Stability in Sprague-Dawley rat stomach fundus strip assessed as hydrolysis. Type of data set: ADME, tissue-based. The note with it: read-out: Drug metabolism.
A short description of data set [4]: Chemical stability of the compound assessed as ester hydrolysis in Tyrode's solution at 37 degC for 10 to 15 mins. Type of data set: physicochemical. The note with it: read-out: Drug metabolism.

Turning to `CN(C)CCc1c[nH]c2ccccc12`, in data set [1], the pA2 (in general, a measure of antagonist potency on a negative log scale) is 6. Moreover, the logP (in general, the decadic logarithm of the partition coefficient of the neutral form, usually between octanol and water) in data set [2] turned out to be 2.61.

As to `CC(=O)Oc1ccc2[nH]cc(CCN(C)C)c2c1.O=C(O)C(=O)O`, the pA2 in data set [1] worked out at 7.71. Moreover, the metabolised in data set [3] was less than 5%. For the same molecule, the logP in data set [2] was 2.31. Further, in data set [4], the degraded turned out to be 5%.

Consider `CCC(=O)Oc1ccc2[nH]cc(CCN(C)C)c2c1.O=C(O)C(=O)O`, for which the metabolised in data set [3] was 15%. Besides, the logP in data set [2] was 5.6. Also, the degraded in data set [4] turned out to be 5%.

Take `CCCC(=O)Oc1ccc2[nH]cc(CCN(C)C)c2c1.O=C(O)C(=O)O`: in data set [1], the pA2 was 7.32. Further, the metabolised in data set [3] was found to be 15%. Besides, the degraded in data set [4] amounted to 5%.

Regarding `CC(C)C(=O)Oc1ccc2[nH]cc(CCN(C)C)c2c1`, the metabolised in data set [3] worked out at 15%. In data set [4], the degraded stood at 1%.

As to `CN(C)CCc1c[nH]c2ccc(OC(=O)C(C)(C)C)cc12`, the metabolised in data set [3] was determined as 15%. Further, the degraded in data set [4] is 1%.

As to `CN(C)CCc1c[nH]c2ccc(O)cc12` [BUFOTENINE], the pA2 in data set [1] amounted to 7.41. In data set [2], the logP is 0.06.

As to `COc1ccc2[nH]cc(CCN(C)C)c2c1` [MEBUFOTENIN], the lipophilicity (logP) in data set [2] was 3.3.

(Values after ChEMBL document CHEMBL3243958, “Bufotenine esters” (J Med Chem, 1979).)
